Reference: BigSolDB 2.1

O=c1cc(CBr)c2ccccc2[nH]1
solubility (mole fraction)
Conditions | 273.15 K | 278.15 K | 283.15 K | 288.15 K | 293.15 K | 298.15 K | 303.15 K | 308.15 K | 313.15 K
in 1,4-dioxane | – | – | – | 0.000504 | 0.000625 | 0.000767 | 0.00092 | 0.00111 | 0.00137
in 2-butanone | 0.000321 | 0.000365 | 0.000408 | 0.000455 | 0.000511 | 0.00057 | 0.000634 | 0.00071 | 0.000792
in DMF | 0.00214 | 0.00272 | 0.00329 | 0.00399 | 0.00464 | 0.00542 | 0.00634 | 0.00729 | 0.00828
in DMSO | – | – | – | – | 0.0141 | 0.0185 | 0.0232 | 0.0284 | 0.0338
in NMP | 0.0044 | 0.00524 | 0.0062 | 0.00719 | 0.00827 | 0.00939 | 0.0108 | 0.0125 | 0.0143
in acetonitrile | 8e-05 | 9e-05 | 0.000104 | 0.000118 | 0.000134 | 0.00015 | 0.000171 | 0.000196 | 0.000223
in ethanol | 0.000173 | 0.000188 | 0.000206 | 0.000227 | 0.000247 | 0.000271 | 0.000301 | 0.000338 | 0.000385
in isopropanol | 0.000136 | 0.000154 | 0.000177 | 0.0002 | 0.000224 | 0.000248 | 0.000279 | 0.000316 | 0.00036
in methanol | 0.000113 | 0.000129 | 0.000146 | 0.000165 | 0.000186 | 0.000207 | 0.000234 | 0.000265 | 0.000303
in n-butanol | 0.00029 | 0.000311 | 0.000333 | 0.000361 | 0.000391 | 0.000425 | 0.000461 | 0.000508 | 0.000558
in n-propanol | 0.000224 | 0.00024 | 0.000262 | 0.000283 | 0.000309 | 0.000341 | 0.000379 | 0.000425 | 0.000476
in toluene | 1.5e-05 | 1.9e-05 | 2.3e-05 | 2.8e-05 | 3.2e-05 | 3.8e-05 | 4.3e-05 | 4.9e-05 | 5.6e-05
